# Patent publication US20240335420A1, “N-ACYLHYDRAZONE COMPOUNDS CAPABLE OF INHIBITING NAV 1.7 AND/OR NAV 1.8, PROCESSES FOR THE PREPARATION THEREOF, COMPOSITIONS, USES, METHODS FOR TREATMENT USING SAME AND KITS” (EUROFARMA LABORATÓRIOS S.A., priority 2021, published 2024)
# Experiments:
# Assay type in all cases: cell-based
# [1] = biological target: T1, human sodium channels Nav 1.8 (Homo sapiens (Human), UniProt Q9Y5Y9); experiment: Automated whole-cell voltage-clamp (ScreenPatch 384P), Nav 1.8 sodium current, Protocol 2; conditions: Protocol 2 (holding −100 mV, inactivation step −40 mV 8 s, 0.05 Hz); CHO cells expressing human Nav 1.8; read-out: Nav1.8 IC50
# T1 sequence (Q9Y5Y9 whole entry): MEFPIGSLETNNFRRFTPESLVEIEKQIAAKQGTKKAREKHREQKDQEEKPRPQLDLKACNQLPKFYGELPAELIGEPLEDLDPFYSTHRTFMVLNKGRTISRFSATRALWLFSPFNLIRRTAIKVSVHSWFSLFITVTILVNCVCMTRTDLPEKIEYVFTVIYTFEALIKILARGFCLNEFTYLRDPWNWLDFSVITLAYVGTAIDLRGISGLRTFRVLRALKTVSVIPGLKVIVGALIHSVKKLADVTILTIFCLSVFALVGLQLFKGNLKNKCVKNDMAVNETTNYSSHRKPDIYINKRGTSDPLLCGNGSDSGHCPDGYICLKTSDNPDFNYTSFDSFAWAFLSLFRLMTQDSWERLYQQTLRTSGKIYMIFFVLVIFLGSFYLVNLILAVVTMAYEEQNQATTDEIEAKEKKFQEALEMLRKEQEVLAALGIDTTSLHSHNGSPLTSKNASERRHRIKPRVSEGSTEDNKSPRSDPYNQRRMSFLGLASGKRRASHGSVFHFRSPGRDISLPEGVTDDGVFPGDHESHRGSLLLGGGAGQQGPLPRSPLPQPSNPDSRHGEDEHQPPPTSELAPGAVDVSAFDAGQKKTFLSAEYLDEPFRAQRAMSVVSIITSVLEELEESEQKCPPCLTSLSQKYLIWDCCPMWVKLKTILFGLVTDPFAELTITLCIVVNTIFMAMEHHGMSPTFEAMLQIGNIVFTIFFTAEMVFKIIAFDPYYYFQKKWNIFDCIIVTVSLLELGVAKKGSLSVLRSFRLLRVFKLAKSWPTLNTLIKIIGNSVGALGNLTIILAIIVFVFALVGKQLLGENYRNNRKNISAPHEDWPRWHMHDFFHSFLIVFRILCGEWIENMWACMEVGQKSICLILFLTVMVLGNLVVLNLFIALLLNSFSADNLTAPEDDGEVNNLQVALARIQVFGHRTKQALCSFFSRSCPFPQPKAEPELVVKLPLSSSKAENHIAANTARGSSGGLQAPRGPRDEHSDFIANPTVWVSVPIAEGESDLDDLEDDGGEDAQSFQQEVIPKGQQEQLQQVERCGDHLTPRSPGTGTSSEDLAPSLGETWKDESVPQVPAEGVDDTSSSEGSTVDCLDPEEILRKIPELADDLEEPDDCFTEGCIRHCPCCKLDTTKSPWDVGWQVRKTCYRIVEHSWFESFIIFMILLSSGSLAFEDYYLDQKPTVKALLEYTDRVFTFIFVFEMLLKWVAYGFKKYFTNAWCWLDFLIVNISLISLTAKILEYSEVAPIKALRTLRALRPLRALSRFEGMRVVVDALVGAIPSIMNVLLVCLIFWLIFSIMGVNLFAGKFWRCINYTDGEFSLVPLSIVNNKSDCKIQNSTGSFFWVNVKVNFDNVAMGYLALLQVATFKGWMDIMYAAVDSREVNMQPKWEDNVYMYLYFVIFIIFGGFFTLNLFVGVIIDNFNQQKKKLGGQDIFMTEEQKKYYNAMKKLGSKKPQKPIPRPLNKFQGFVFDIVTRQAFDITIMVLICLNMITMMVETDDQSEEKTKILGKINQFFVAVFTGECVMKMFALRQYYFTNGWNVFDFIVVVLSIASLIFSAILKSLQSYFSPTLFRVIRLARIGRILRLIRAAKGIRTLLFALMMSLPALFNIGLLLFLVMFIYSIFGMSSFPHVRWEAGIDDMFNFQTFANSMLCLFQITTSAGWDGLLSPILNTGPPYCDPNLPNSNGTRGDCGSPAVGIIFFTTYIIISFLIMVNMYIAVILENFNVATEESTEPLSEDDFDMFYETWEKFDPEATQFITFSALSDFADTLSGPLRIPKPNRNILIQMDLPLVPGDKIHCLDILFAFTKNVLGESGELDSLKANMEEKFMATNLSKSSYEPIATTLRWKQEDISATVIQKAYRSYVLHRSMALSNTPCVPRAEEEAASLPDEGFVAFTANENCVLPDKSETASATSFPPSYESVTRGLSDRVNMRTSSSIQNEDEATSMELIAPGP
# Description: (§1) Biological assays were performed on Chinese hamster ovary (CHO) cells expressing the human sodium channels Nav 1.8 and Nav 1.7 stably.
# (§2) The experimental voltage-clamp protocol using the whole cell configuration was established on the automated ScreenPatch® 384P platform (SP384PE, Nanion Technologies, Livingston, NJ) and recording of the results was performed with a Nanion 384-well Patch Clamp chip (NPC) (Nanion Technologies, Livingston, NJ).
# (§3) Compounds of Formula (I), were diluted in eight concentrations in the extracellular solution composed of physiological saline, buffered with HEPES (mM): NaCl, 137; KCl, 4; CaCl2, 3.8; MgCl2, 1; HEPES, 10; Glucose, 10; pH 7.4. The […], 50; CsF, 90; MgCl2, 5; EGTA, 5; HEPES, 10; pH 7.2. The duration of exposure of each compound with the cells expressing Nav 1.7 or Nav 1.8 was at least five minutes and the assays were performed at room temperature.
# (§4) The measurements of the sodium currents of Nav 1.8 and Nav 1.7 were obtained using the voltage protocols described below: • Protocol 1: A holding voltage of −90 mV was established followed by a voltage phase of 200 ms to −120 mV, followed by a voltage step of 10 mV for 1 second for Nav 1.8 or 0 mV for Nav 1.7, followed by a step of −100 mV for 20 ms, followed by a step of 20 ms for 10 mV for Nav 1.8 or 0 mV for Nav 1.7 (TP1A) before returning to the holding voltage of −90 mV. • Protocol 2: A holding voltage of −100 mV was established followed by an inactivation voltage step at −40 mV for 8 seconds, followed by a −100 mV step for […], followed by a 20 ms step for 10 mV for Nav 1.8 or 0 mV for Nav 1.7 (TP1A) before returning to the holding voltage of −100 mV.
# (§5) Protocols were repeated at a frequency of 0.1 Hz (Protocol 1) or 0.05 Hz (Protocol 2) and current amplitude was quantified over the TP1A phase log. The variation in the peak amplitude of the current was evaluated according to the Formula described below, after exposure of the cells expressing the channels, at each concentration of the different compounds:
# (§6) [formula] • where |TP1A, basal, and |TP1A, molecule represent the entry peaks of sodium currents into TP1A prior to exposure to the compound and in the presence of the compound, respectively.
# (§7) The decrease in peak current amplitude, after exposure of the cells to the compounds, was used to calculate the percent relative blocking of the channels relative to the positive control according to the Formula below:
# (§8) [formula] • where % V and % CP represent the averages of the values of current inhibition with a vehicle (DMSO) and positive controls, respectively. The sodium currents of the positive control were considered as 100%.
# (§9) [formula] • where [Test] represents the concentration of the evaluated molecule, IC50 is the concentration of the compound that generates half of the maximum inhibition, N is the Hill's coefficient and % Block′ is the percentage of the sodium channel current (Nav 1.8 and Nav 1.7) inhibited at each concentration of the evaluated molecule. Data were obtained by non-linear least squares regression with XLfit for Excel (Microsoft, Redmond, WA).
# (§10) Compounds were tested in at least one assay to obtain the IC50 value.
# [2] = biological target: T2, human sodium channels Nav 1.7 (Homo sapiens (Human), UniProt Q15858); experiment: Automated whole-cell voltage-clamp (ScreenPatch 384P), Nav 1.7 sodium current, Protocol 2; conditions: Protocol 2 (holding −100 mV, inactivation step −40 mV 8 s, 0.05 Hz); CHO cells expressing human Nav 1.7; read-out: Nav1.7 IC50
# T2 sequence (Q15858 whole entry): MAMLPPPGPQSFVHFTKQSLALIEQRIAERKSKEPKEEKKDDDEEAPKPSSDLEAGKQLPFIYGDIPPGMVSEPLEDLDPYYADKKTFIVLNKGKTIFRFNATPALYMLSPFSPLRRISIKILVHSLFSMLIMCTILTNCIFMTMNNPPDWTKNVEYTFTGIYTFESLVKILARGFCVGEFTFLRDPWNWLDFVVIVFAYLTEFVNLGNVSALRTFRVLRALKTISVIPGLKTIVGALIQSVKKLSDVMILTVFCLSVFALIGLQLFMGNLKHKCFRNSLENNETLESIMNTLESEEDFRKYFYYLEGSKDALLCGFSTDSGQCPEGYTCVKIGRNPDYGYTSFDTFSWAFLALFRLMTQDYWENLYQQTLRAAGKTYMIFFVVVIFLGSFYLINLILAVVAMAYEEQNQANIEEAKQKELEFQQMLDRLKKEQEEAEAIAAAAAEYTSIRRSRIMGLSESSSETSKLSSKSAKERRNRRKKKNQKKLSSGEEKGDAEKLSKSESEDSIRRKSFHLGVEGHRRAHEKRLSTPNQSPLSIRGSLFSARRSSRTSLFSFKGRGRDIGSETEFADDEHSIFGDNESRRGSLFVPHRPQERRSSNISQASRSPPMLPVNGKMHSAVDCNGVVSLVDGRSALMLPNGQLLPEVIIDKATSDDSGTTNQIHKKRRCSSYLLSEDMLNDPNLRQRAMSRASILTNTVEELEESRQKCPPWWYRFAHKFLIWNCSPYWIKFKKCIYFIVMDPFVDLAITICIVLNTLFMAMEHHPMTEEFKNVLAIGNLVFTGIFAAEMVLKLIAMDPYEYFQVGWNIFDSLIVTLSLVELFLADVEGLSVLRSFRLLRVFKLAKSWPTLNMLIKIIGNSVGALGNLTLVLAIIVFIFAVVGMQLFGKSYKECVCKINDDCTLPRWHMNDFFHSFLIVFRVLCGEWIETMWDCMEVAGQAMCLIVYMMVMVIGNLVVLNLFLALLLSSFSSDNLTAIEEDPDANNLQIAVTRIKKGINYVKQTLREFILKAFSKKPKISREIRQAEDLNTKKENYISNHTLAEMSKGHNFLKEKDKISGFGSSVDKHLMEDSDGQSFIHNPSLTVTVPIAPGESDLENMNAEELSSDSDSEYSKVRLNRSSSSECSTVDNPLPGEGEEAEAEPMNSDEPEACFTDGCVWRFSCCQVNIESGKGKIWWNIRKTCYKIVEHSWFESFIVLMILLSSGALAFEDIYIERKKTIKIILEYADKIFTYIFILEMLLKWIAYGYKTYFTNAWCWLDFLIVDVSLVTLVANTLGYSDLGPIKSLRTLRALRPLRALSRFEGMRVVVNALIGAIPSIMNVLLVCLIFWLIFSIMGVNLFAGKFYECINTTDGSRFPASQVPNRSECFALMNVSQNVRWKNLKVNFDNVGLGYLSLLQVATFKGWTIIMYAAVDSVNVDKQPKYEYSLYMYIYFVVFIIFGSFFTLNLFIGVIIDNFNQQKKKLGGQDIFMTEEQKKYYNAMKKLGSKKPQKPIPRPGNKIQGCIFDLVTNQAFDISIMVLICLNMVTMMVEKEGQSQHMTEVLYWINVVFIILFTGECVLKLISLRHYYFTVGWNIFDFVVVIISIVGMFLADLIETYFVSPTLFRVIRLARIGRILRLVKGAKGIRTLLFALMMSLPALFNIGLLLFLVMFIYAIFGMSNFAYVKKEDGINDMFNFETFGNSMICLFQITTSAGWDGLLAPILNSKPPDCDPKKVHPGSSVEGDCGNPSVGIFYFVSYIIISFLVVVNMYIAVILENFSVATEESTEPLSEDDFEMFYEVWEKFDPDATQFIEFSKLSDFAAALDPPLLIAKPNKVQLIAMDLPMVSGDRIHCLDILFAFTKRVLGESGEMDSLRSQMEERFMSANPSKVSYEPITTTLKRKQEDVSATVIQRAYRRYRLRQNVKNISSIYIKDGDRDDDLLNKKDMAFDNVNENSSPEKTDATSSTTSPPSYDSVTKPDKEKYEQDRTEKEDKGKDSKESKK
# Description: as §1, §2, §3, §4, §5, §6, §7, §8, §9, §10
# [3] = biological target: T1, human sodium channels Nav 1.8; experiment: Automated whole-cell voltage-clamp (ScreenPatch 384P), Nav 1.8 sodium current, Protocol 1; conditions: Protocol 1 (holding −90 mV, 0.1 Hz); CHO cells expressing human Nav 1.8; room temperature; read-out: Nav1.8 IC50
# Description: as §1, §2, §3, §4, §5, §6, §7, §8, §9, §10
# [4] = biological target: T2, human sodium channels Nav 1.7; experiment: Automated whole-cell voltage-clamp (ScreenPatch 384P), Nav 1.7 sodium current, Protocol 1; conditions: Protocol 1 (holding −90 mV, 0.1 Hz); CHO cells expressing human Nav 1.7; room temperature; read-out: Nav1.7 IC50
# Description: as §1, §2, §3, §4, §5, §6, §7, §8, §9, §10
SMILES,IC50 [1],IC50 [2],IC50 [3],IC50 [4]
"COc1ccc(-c2cccc(C(=O)N/N=C/c3cc(OC)cc(OC)c3)n2)cc1 [Compound 14, (E)-N′-(3,5-dimethoxybenzylidene)-6-(4-methoxyphenyl) picolinohydrazide]",0.754 µM,1.32 µM,–,–
"CCCOc1ccc(-c2cccc(C(=O)N/N=C/c3cc(OC)cc(OC)c3)n2)cc1 [Compound 15, (E)-N′-(3,5-dimethoxybenzylidene)-6-(4-propoxyphenyl) picolinohydrazide]",0.297 µM,0.272 µM,–,–
"CCOc1ccc(-c2cccc(C(=O)N/N=C/c3cc(OC)cc(OC)c3)n2)cc1 [Compound 31, (E)-N′-(3,5-dimethoxybenzylidene)-6-(4-ethoxyphenyl) picolinohydrazide]",0.224 µM,0.444 µM,–,–
"CCOc1ccc(-c2cccc(C(=O)N/N=C/c3c(Cl)cccc3Cl)n2)cc1 [Compound 34, (E)-N′-(2,6-dichlorobenzylidene)-6-(4-ethoxyphenyl) picolinohydrazide]",–,–,> 10 µM,> 10 µM
"CCOc1ccc(-c2cccc(C(=O)N/N=C/c3c(F)cccc3Cl)n2)cc1 [Compound 35, (E)-N′-(2-chloro-6-fluorobenzylidene)-6-(4-ethoxyphenyl) picolinohydrazide]",–,–,> 10 µM,> 10 µM
"CCOc1ccc(-c2cccc(C(=O)N/N=C/c3ccccc3OC)n2)cc1 [Compound 36, (E)-6-(4-ethoxyphenyl)-N′-(2-methoxybenzylidene) picolinohydrazide]",–,–,8.43 µM,7.06 µM
"CCOc1ccc(-c2cccc(C(=O)N/N=C/c3cccnc3N3CCOCC3)n2)cc1 [Compound 37, (E)-6-(4-ethoxyphenyl)-N′-((2-morpholinopyridin-3-yl)methylene) picolinohydrazide]",–,–,> 10 µM,8.76 µM
"COc1cc(/C=N/NC(=O)c2cc(-c3ccc(Cl)cc3)ccn2)cc(OC)c1 [Compound 42, (E)-4-(4-chlorophenyl)-N′-(3,5-dimethoxybenzylidene) picolinohydrazide]",–,–,> 10 µM,> 10 µM
"O=C(N/N=C/c1cccs1)c1cc(-c2ccc(Cl)cc2)ccn1 [Compound 43, (E)-4-(4-chlorophenyl)-N′-(thiophen-2-ylmethylene) picolinohydrazide]",–,–,> 10 µM,> 10 µM
"CCOc1ccc(-c2ccnc(C(=O)N/N=C/c3cc(OC)cc(OC)c3)c2)cc1 [Compound 44, (E)-N′-(3,5-dimethoxybenzylidene)-4-(4-ethoxyphenyl) picolinohydrazide]",–,–,> 10 µM,> 10 µM
"CCOc1ccc(-c2ccnc(C(=O)N/N=C/c3cccs3)c2)cc1 [Compound 45, (E)-4-(4-ethoxyphenyl)-N′-(thiophen-2-ylmethylene) picolinohydrazide]",–,–,> 10 µM,> 10 µM
"COc1cc(/C=N/NC(=O)c2cc(-c3ccc(OC(C)C)cc3)ccn2)cc(OC)c1 [Compound 46, (E)-N′-(3,5-dimethoxybenzylidene)-4-(4-isopropoxyphenyl) picolinohydrazide]",–,–,> 10 µM,> 10 µM
"CC(C)Oc1ccc(-c2ccnc(C(=O)N/N=C/c3cccs3)c2)cc1 [Compound 47, (E)-4-(4-isopropoxyphenyl)-N′-(thiophen-2-ylmethylene) picolinohydrazide]",–,–,> 10 µM,> 10 µM
"COc1cc(/C=N/NC(=O)c2cc(-c3ccc(OC4CCCC4)cc3)ccn2)cc(OC)c1 [Compound 48, (E)-4-(4-(cyclopentyloxy)phenyl)-N′-(3,5-dimethoxybenzylidene) picolinohydrazide]",–,–,> 10 µM,> 10 µM
"COc1cc(/C=N/NC(=O)c2cc(-c3ccc(OC(F)(F)F)cc3)ccn2)cc(OC)c1 [Compound 49, (E)-N′-(3,5-dimethoxybenzylidene)-4-(4-(trifluoromethoxy)phenyl) picolinohydrazide]",–,–,> 10 µM,> 10 µM
"O=C(N/N=C/c1cccs1)c1cc(-c2ccc(OC3CCCC3)cc2)ccn1 [Compound 50, (E)-4-(4-(cyclopentyloxy)phenyl)-N′-(thiophen-2-ylmethylene) picolinohydrazide]",–,–,> 10 µM,> 10 µM
"O=C(N/N=C/c1cccs1)c1cc(-c2ccc(OC(F)(F)F)cc2)ccn1 [Compound 51, (E)-N′-(thiophen-2-ylmethylene)-4-(4-(trifluoromethoxy)phenyl) picolinohydrazide]",–,–,> 10 µM,> 10 µM
"COc1cc(/C=N/NC(=O)c2ccnc(-c3ccc(Cl)cc3)n2)cc(OC)c1 [Compound 52, (E)-2-(4-chlorophenyl)-N′-(3,5-dimethoxybenzylidene)pyrimidine-4-carbohydrazide]",–,–,> 10 µM,> 10 µM
"CCOc1ccc(-c2nccc(C(=O)N/N=C/c3cc(OC)cc(OC)c3)n2)cc1 [Compound 53, (E)-N′-(3,5-dimethoxybenzylidene)-2-(4-ethoxyphenyl)pyrimidine-4-carbohydrazide]",–,–,> 10 µM,> 10 µM
"COc1cc(/C=N/NC(=O)c2ccnc(-c3ccc(OC4CCCC4)cc3)n2)cc(OC)c1 [Compound 55, (E)-2-(4-(cyclopentyloxy)phenyl)-N′-(3,5-dimethoxybenzylidene)pyrimidine-4-carbohydrazide]",–,–,> 10 µM,> 10 µM
"COc1cc(/C=N/NC(=O)c2ccnc(-c3ccc(OC(F)(F)F)cc3)n2)cc(OC)c1 [Compound 56, (E)-N′-(3,5-dimethoxybenzylidene)-2-(4-(trifluoromethoxy)phenyl) pyrimidine-4-carbohydrazide]",–,–,> 10 µM,> 10 µM
"COc1ccc(-c2nccc(C(=O)N/N=C/c3cc(OC)cc(OC)c3)n2)cc1 [Compound 57, (E)-N′-(3,5-dimethoxybenzylidene)-2-(4-methoxyphenyl)pyrimidine-4-carbohydrazide]",–,–,> 10 µM,> 10 µM
"CCCOc1ccc(-c2nccc(C(=O)N/N=C/c3cc(OC)cc(OC)c3)n2)cc1 [Compound 58, (E)-N′-(3,5-dimethoxybenzylidene)-2-(4-propoxyphenyl)pyrimidine-4-carbohydrazide]",–,–,> 10 µM,> 10 µM
"CCCCOc1ccc(-c2nccc(C(=O)N/N=C/c3cc(OC)cc(OC)c3)n2)cc1 [Compound 59, (E)-2-(4-butoxyphenyl)-N′-(3,5-dimethoxybenzylidene)pyrimidine-4-carbohydrazide]",–,–,> 10 µM,> 10 µM
"CCCCOc1ccc(-c2ccnc(C(=O)N/N=C/c3cc(OC)cc(OC)c3)n2)cc1 [Compound 67, (E)-4-(4-butoxyphenyl)-N′-(3,5-dimethoxybenzylidene)pyrimidine-2-carbohydrazide]",–,–,> 10 µM,> 10 µM
"COc1cc(/C=N/N(C)C(=O)c2ccc(-c3ccc(Cl)cc3)o2)cc(OC)c1 [Compound 78, (E)-5-(4-chlorophenyl)-N′-(3,5-dimethoxybenzylidene)-N′-methylfuran-2-carbohydrazide]",–,–,> 30 µM,> 30 µM
"CCOc1ccc(-c2cccc(C(=O)N(C)/N=C/c3cc(OC)cc(OC)c3)n2)cc1 [Compound 79, (E)-N′-(3,5-dimethoxybenzylidene)-6-(4-ethoxyphenyl)-N′-methylpicolinohydrazide]",–,–,> 10 µM,> 10 µM
